The record followed here is patent US9120808B2 (NABRIVA THERAPEUTICS AG, priority 2009, dated 2015).

One data set deals with TEM-1 β-lactamase (Escherichia coli, UniProt P62593). The experiment in a line: Cell-free β-lactamase inhibition study (nitrocefin hydrolysis). Conditions: 10 min pre-incubation at 37° C., nitrocefin substrate. The format is biochemical. On the procedure: Cell-Free-β-Lactamase Inhibition Study
Assays are performed with β-lactamases expressed in the pET system (Novagen, San Diego, Calif.) without signal peptides. They contain an N-terminal hexa-Histidine tag that is used for purification on Ni-NTA (Qiagen, Hilden, Germany). The compounds are prepared as 50 mM stocks in DMSO and diluted into buffer P1 (50 mM phosphate, pH 7) to a final concentration of 10% DMSO. All further dilutions are done in P2 (P1 with 10% DMSO). Enzyme and compound dilutions are pre-incubated for 10 min at 37° C. and the reaction is started with the addition of pre-warmed (37° C.) nitrocefin at a final concentration of […]. […] The initial velocity is determined and IC50 values are calculated using non-linear regression and sigmoidal dose response analysis with the PRISM 4.0 software (Graphpad Software Inc., San Diego, Calif.).

The subject of data set [1] is TEM-1 producing E. coli B269 (clinical isolate). The format is in vivo. The settings on record: s.c.; 0.5 mg/kg cefepime (0 and 3 h) + 20 mg/kg Example 49 (0, 1.5, 3, 4.5 h after infection). On the procedure: A sepsis model in female NMRI mice was employed using TEM-1 producing E. coli B269 (clinical isolate) as the infecting bacterial strain. In general, the final inoculum given in 0.3 ml per mouse intraperitoneally represented a 100% lethal concentration for systemic infections within 48 hours.
The subcutaneous treatment schedule for the antibiotic at various doses was simultaneous and 3 hours after infection.

Another data set is described as follows: Pharmacokinetics in mice. The format is in vivo. The settings on record: for AUC / Cmax: mouse, plasma. On the procedure:
The values of the PK parameters were calculated by standard noncompartmental analysis, using Kinetica 4.2 (InnaPhase). Plasma concentration values below the limit of quantification were taken as 0. The maximum plasma concentration (Cmax) and the time to reach Cmax were determined from observed data.

For the next data set, the system named is E. cloacae 83989. Briefly: In-vitro synergy test, MIC by broth/agar dilution. In kind it is cell-based. On the procedure: (§1) Stock solutions of the test compounds and control antibiotics are prepared in distilled water according to the NCCLS guidelines (NCCLS (National Commitee for Clinical Laboratory Standards). 12(3). 2000. M7-A4). […] All drug weights are corrected for salt forms and refer to the pure drug substance.
(§2) All tested strains and clinical isolates are either purchased from the American Type Culture Collection (ATCC), kindly supplied by A. Georgopoulos (Vienna General Hospital, Vienna, Austria), and I. Chopra (Leeds, UK), collected from the SENTRY study (F. J. Schmitz, Minden, Germany) or from the Sandoz culture collection.
(§3) All strain identities are confirmed by BBL Crystal™ Identification Systems (Beckton Dickinson, Cockeysville, Md., USA). Stock cultures are prepared from broth cultures grown at 35° C. for 18-22 h without agitation and subsequent addition of 5% DMSO (v/v, final concentration) as cryoprotectant and stored frozen in liquid nitrogen.
(§4) Bacterial susceptibility, expressed as MIC, is determined by microbroth dilution technique and agar dilution technique as recommended by the approved standard reference recommendations of the NCCLS.
(§5) The inoculum is prepared by the direct colony suspension method as described by NCCLS. For this purpose the bacteria are grown on blood agar plates at 35° C. for 24 h. Subsequently 3-5 single colonies are suspended in 5 ml liquid medium. The bacteria are then incubated for 5 h to reach the logarithmic growth phase and subsequently diluted with medium or NaCl (0.86%) to reach a final living cell count equivalent to 10^8 CFU/ml. Then the bacterial suspension is diluted 1:10 and 1 μl (10^4 CFU; final inoculoum 10^5 CFU/ml) is transferred to the test medium containing the antibacterial substances by a multipoint inoculator (Dynatech, Chantilly, Va., USA). The plates are then incubated at 35° C. for 24 h. The MIC is determined optically and defined as the minimum inhibitory concentration [μg/ml] of antibiotic at which no visible bacterial growth occurs.
(In general: In agar dilution, organisms are placed on agar that contains the substance at set levels.)

Data set [2] concerns K. pneumoniae ATCC 700603. Briefly: In-vitro synergy test, MIC by broth/agar dilution. In kind it is cell-based. How it is done: as §1, §2, §3, §4, §5
Another data set has as its system C. freundii 7023771. The experiment in a line: In-vitro synergy test, MIC by broth/agar dilution. In kind it is cell-based. On the procedure:
as §1, §2, §3, §4, §5

Where [3] appears, read: MIC of cefepime with 17 μM Example 49.
Where [4] appears, read: MIC of ceftazidime with 68 μM Example 49.

Molecules are shown by their SMILES. Like-named read-outs stand apart in the source and are kept apart here. Some results are limits rather than exact numbers.

TEM-1 β-lactamase, sequence (P62593 whole entry, looked up): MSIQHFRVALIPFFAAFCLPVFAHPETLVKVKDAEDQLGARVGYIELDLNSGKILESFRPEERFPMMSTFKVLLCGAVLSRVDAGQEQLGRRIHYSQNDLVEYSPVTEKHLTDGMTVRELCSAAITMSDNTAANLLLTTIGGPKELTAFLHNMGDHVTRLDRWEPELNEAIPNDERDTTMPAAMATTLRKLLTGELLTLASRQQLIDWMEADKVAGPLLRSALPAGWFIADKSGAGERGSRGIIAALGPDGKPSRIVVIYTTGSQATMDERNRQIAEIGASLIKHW

`CC1CC(=C2O[C@@H]3CC(=O)N3C2C(=O)O)C(=O)O1` (single isomer, unassigned) [Example 49]: the 50% inhibitory concentration (IC50) – broadly, the midpoint of a concentration-inhibition curve – against TEM-1 β-lactamase was 1.8 nM. In data set [1], the “survival, combination of cefepime and Example 49” value is reported as “survival of all animals”. The AUC (in general, the area under the concentration-time curve, a measure of exposure) in the data set “Pharmacokinetics in mice” (oral 25 mg/kg) was 1090 ng·h/mL; in “Pharmacokinetics in mice” (sc, subcutaneous 10 mg/kg), 2090 ng·h/mL. Moreover, the Cmax stood at 2220 ng/mL in the data set “Pharmacokinetics in mice” (oral 25 mg/kg (cremophor EL/ethanol/glucose in saline), read-out: peak plasma concentration (Cmax)) and 5600 ng/mL in the data set “Pharmacokinetics in mice” (sc, subcutaneous 10 mg/kg (0.05 M NaPO4 buffer, pH 7.2), read-out: Cmax). Further, the Thalf in the data set “Pharmacokinetics in mice” (oral 25 mg/kg) worked out at 18.90 min; in “Pharmacokinetics in mice” (subcutaneous 10 mg/kg), 12.27 min. Moreover, the figures for the “time to reach Cmax” value in “Pharmacokinetics in mice” (oral 25 mg/kg) and in “Pharmacokinetics in mice” (subcutaneous 10 mg/kg) were 15 min and 5 min, respectively. Further, the “Cefepime MIC, +17 μM Example 49” value in the data set with E. cloacae 83989 (setting [3]) was 0.8 µg/mL; in data set [2] (setting [3]), 0.2 µg/mL; with C. freundii 7023771 (setting [3]), 0.4 µg/mL. Also, the results for the “Ceftazidime MIC, +68 μM Example 49” value (with E. cloacae 83989 (setting [4]); in data set [2] (setting [4]); in the data set on C. freundii 7023771 (setting [4])) were 12.8 µg/mL, 0.2 µg/mL and 3.2 µg/mL, respectively. The “Amoxicillin MIC, +68 μM Example 49” value in data set [2] (MIC of amoxicillin with 68 μM Example 49) stood at 3.2 µg/mL.

On to `CC1(C)S[C@@H]2[C@H](NC(=O)[C@H](N)c3ccc(O)cc3)C(=O)N2[C@H]1C(=O)O` [Amoxicillin, reference compound], for which, in data set [2] (antibiotic alone), the “Amoxicillin MIC, alone” value is greater than 25.6 µg/mL.

As to `CO/N=C(\C(=O)N[C@@H]1C(=O)N2C(C(=O)[O-])=C(C[N+]3(C)CCCC3)CS[C@H]12)c1csc(N)n1` [Cefepime, reference compound], the “Cefepime MIC, alone” value (in data set [2] (antibiotic alone); in the data set on C. freundii 7023771 (antibiotic alone)) was 0.8 µg/mL in each case.

Consider `CC(C)(O/N=C(\C(=O)N[C@@H]1C(=O)N2C(C(=O)[O-])=C(C[n+]3ccccc3)CS[C@H]12)c1csc(N)n1)C(=O)O` [Ceftazidime, reference compound], for which the “Ceftazidime MIC, alone” value (in the data set with E. cloacae 83989 (antibiotic alone); in data set [2] (antibiotic alone); with C. freundii 7023771 (antibiotic alone)) was greater than 25.6 µg/mL each time.
